From ChEMBL document CHEMBL4699567, “hDM2 protein-binding peptides screened from stapled α-helical peptide phage display libraries with different types of staple linkers” (Bioorg Med Chem Lett, 2020)
Starred links: 1 amine or outer side, 2 acyl side, 3 side chain; linkers in the order of their positions; H or OH if unused. Positions of bridges follow the written chain, without caps; N, C: chain ends. Residues, ends and D or L forms follow the SMILES beside them. *: point of attachment. 5FAM = O=C1OC2(c3ccc(O)cc3Oc3cc(O)ccc32)c2ccc(C(=O)*)cc21; CH2CONH(CH2)4NHCOCH2 = O=C(C[*:1])NCCCCNC(=O)C[*:2]

Legend:
[1] = biological target: T1, E3 ubiquitin-protein ligase Mdm2 (Homo sapiens, UniProt Q00987); assay: Binding affinity to human MDM2 assessed as dissociation constant in presence of 50 uM p53 peptide by fluorescence polarization assay
[2] = biological target: T1, E3 ubiquitin-protein ligase Mdm2; assay: Binding affinity to human MDM2 assessed as dissociation constant by fluorescence polarization assay

T1 sequence (Q00987 whole entry): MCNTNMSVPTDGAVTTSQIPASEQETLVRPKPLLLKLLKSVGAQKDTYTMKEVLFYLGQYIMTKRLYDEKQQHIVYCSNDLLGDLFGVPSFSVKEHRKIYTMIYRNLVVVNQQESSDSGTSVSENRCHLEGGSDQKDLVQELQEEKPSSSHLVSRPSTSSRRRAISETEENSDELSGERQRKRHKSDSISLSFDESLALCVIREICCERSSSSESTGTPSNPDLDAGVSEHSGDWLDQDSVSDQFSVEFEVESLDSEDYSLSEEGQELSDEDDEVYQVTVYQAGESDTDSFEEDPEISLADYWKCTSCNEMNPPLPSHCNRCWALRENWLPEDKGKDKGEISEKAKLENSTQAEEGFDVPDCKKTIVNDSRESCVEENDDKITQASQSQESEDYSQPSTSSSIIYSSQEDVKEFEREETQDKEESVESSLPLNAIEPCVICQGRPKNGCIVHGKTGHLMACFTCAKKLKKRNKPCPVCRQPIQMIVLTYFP

SMILES	Kd [1] [µM]	Kd [2] [µM]
CSCC[C@H](NC(=O)[C@H](C)NC(=O)CN)C(=O)N[C@@H](CCC(=O)O)C(=O)N[C@H]1CSCC(=O)NCCCCNC(=O)CSC[C@@H](C(=O)N[C@@H](CCCCN)C(=O)N[C@@H](CCCCN)C(=O)N[C@@H](C)C(=O)NCC(=O)NCC(=O)NCC(=O)NCC(=O)N[C@@H](CCCCNC(=O)c2ccc3c(c2)C(=O)OC32c3ccc(O)cc3Oc3cc(O)ccc32)C(N)=O)NC(=O)[C@H](CCC(=O)O)NC(=O)[C@H](CCCCN)NC(=O)[C@H](CCC(=O)O)NC(=O)[C@H](CCCCN)NC(=O)[C@H](CC(C)C)NC(=O)[C@H](Cc2c[nH]c3ccccc23)NC1=O (H-GAMECWLKEKECKKAGGGGK(5FAM)-NH2; linker 5-12 via CH2CONH(CH2)4NHCOCH2)	571	178
CSCC[C@H](NC(=O)[C@H](C)NC(=O)CN)C(=O)N[C@@H](CCC(=O)O)C(=O)N[C@@H](CS)C(=O)N[C@@H](Cc1c[nH]c2ccccc12)C(=O)N[C@@H](CC(C)C)C(=O)N[C@@H](CCCCN)C(=O)N[C@@H](CCC(=O)O)C(=O)N[C@@H](CCCCN)C(=O)N[C@@H](CCC(=O)O)C(=O)N[C@@H](CS)C(=O)N[C@@H](CCCCN)C(=O)N[C@@H](CCC(N)=O)C(=O)N[C@@H](C)C(=O)NCC(=O)NCC(=O)NCC(=O)NCC(=O)N[C@@H](CCCCNC(=O)c1ccc2c(c1)C(=O)OC21c2ccc(O)cc2Oc2cc(O)ccc21)C(N)=O (H-GAMECWLKEKECKQAGGGGK(5FAM)-NH2)	436	195
CSCC[C@H](NC(=O)[C@H](C)NC(=O)CN)C(=O)N[C@@H](CCC(=O)O)C(=O)N[C@H]1CSCC(=O)NCCCCNC(=O)CSC[C@@H](C(=O)N[C@@H](CCCCN)C(=O)N[C@@H](CCC(N)=O)C(=O)N[C@@H](C)C(=O)NCC(=O)NCC(=O)NCC(=O)NCC(=O)N[C@@H](CCCCNC(=O)c2ccc3c(c2)C(=O)OC32c3ccc(O)cc3Oc3cc(O)ccc32)C(N)=O)NC(=O)[C@H](CCC(=O)O)NC(=O)[C@H](CCCCN)NC(=O)[C@H](CCC(=O)O)NC(=O)[C@H](CCCCN)NC(=O)[C@H](CC(C)C)NC(=O)[C@H](Cc2c[nH]c3ccccc23)NC1=O (H-GAMECWLKEKECKQAGGGGK(5FAM)-NH2; linker 5-12 via CH2CONH(CH2)4NHCOCH2)	–	140

Results, then the molecule that gave them:

Kd [1] [µM]	Kd [2] [µM]	SMILES
445	116	CC[C@H](C)[C@H](NC(=O)[C@H](CCCCN)NC(=O)[C@H](CS)NC(=O)[C@H](CCC(=O)O)NC(=O)[C@H](CCC(N)=O)NC(=O)[C@H](CCC(=O)O)NC(=O)[C@H](CCCCN)NC(=O)[C@H](CC(C)C)NC(=O)[C@H](Cc1c[nH]c2ccccc12)NC(=O)[C@H](CS)NC(=O)[C@H](CCC(=O)O)NC(=O)[C@H](CCSC)NC(=O)[C@H](C)NC(=O)CN)C(=O)N[C@@H](C)C(=O)NCC(=O)NCC(=O)NCC(=O)NCC(=O)N[C@@H](CCCCNC(=O)c1ccc2c(c1)C(=O)OC21c2ccc(O)cc2Oc2cc(O)ccc21)C(N)=O (H-GAMECWLKEQECKIAGGGGK(5FAM)-NH2)
–	553	CC(C)C[C@H](NC(=O)[C@H](CCC(=O)O)NC(=O)[C@H](CCCCN)NC(=O)[C@H](CC(N)=O)NC(=O)[C@@H](NC(=O)[C@H](CS)NC(=O)[C@H](CCC(=O)O)NC(=O)[C@H](Cc1c[nH]c2ccccc12)NC(=O)[C@H](C)NC(=O)CN)[C@@H](C)O)C(=O)N[C@@H](Cc1c[nH]c2ccccc12)C(=O)N[C@@H](CS)C(=O)N[C@@H](CCCCN)C(=O)N[C@@H](CCC(N)=O)C(=O)N[C@@H](C)C(=O)NCC(=O)NCC(=O)NCC(=O)NCC(=O)N[C@@H](CCCCNC(=O)c1ccc2c(c1)C(=O)OC21c2ccc(O)cc2Oc2cc(O)ccc21)C(N)=O (H-GAWECTNKELWCKQAGGGGK(5FAM)-NH2)
